Measured values taken from PubChem BioAssay (NCI).
“And” between values parts separate entries of the source, which are not always exact repeats. Identical values can stand only once.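 Five concentrations, 48 hours, 96-well plates. At the GI50, growth is halved. TGI denotes the concentration required for complete inhibition of growth.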

What was measured:
Assay in all cases: NCI-60 cell line screen, 48 h
BT-549 breast = test system: BT-549 breast
COLO 205 colon = test system: COLO 205 colon
HCT-15 colon = test system: HCT-15 colon
IGROV1 ovarian = test system: IGROV1 ovarian
MCF7 breast = test system: MCF7 breast
NCI-H522 lung = test system: NCI-H522 lung
SK-MEL-5 melanoma = test system: SK-MEL-5 melanoma
SN12C renal = test system: SN12C renal
SNB-19 CNS = test system: SNB-19 CNS
U251 CNS = test system: U251 CNS

Row | Compound | GI50 (BT-549 breast) | TGI (BT-549 breast) | GI50 (COLO 205 colon) | TGI (COLO 205 colon) | GI50 (HCT-15 colon) | TGI (HCT-15 colon) | GI50 (IGROV1 ovarian) | TGI (IGROV1 ovarian) | GI50 (MCF7 breast) | TGI (MCF7 breast) | GI50 (NCI-H522 lung) | TGI (NCI-H522 lung) | GI50 (SK-MEL-5 melanoma) | TGI (SK-MEL-5 melanoma) | GI50 (SN12C renal) | TGI (SN12C renal) | GI50 (SNB-19 CNS) | TGI (SNB-19 CNS) | GI50 (U251 CNS) | TGI (U251 CNS)
1 | NS(=O)(=O)c1ccc(-n2nc(-c3ccccc3)cc2-c2cc(O)ccc2O)cc1 | > 100 µM | > 100 µM | > 100 µM | > 100 µM | > 100 µM | > 100 µM | > 100 µM | > 100 µM | 69.4 µM | > 100 µM | > 100 µM | > 100 µM | > 100 µM | > 100 µM | > 100 µM | > 100 µM | > 100 µM | > 100 µM | 46.4 µM | > 100 µM
2 | CC(=O)OCC1OC([S-])C(OC(C)=O)C(OC(C)=O)C1OC(C)=O.[Au+].c1ccc(CN2[CH-]N(Cc3ccccc3)C(c3ccccc3)=C2c2ccccc2)cc1 | 2.03 µM and 0.375 µM | 4.32 µM and 2.69 µM | 3.59 µM and 0.881 µM | 14.3 µM and 2.27 µM | 1.8 µM and 0.906 µM | 3.68 µM and 2 µM | 1.83 µM and 0.514 µM | 3.91 µM and 1.44 µM | 1.65 µM and 0.827 µM | 3.52 µM and 2.04 µM | 2.03 µM and 0.551 µM | 4.7 µM and 1.56 µM | 4.95 µM and 0.839 µM | – | – | 5.08 µM and 1.18 µM | 1.7 µM and 0.3 µM | 3.18 µM and 1.18 µM | 1.74 µM and 0.251 µM | 3.2 µM and 0.942 µM
3 | O=C(Nc1cccc(-n2ccc3c(NC(=O)c4ccccc4)nccc32)c1)c1ccc(Cl)c(Cl)c1 | 0.214 µM | 1.26 µM | 0.124 µM | 0.517 µM | 0.0879 µM | 1.31 µM | 0.25 µM | 1.9 µM | 0.04 µM | 1.43 µM | 0.0786 µM | 1.22 µM | 0.0719 µM | 0.347 µM | 0.38 µM | 1.78 µM | 0.219 µM | 1.89 µM | 0.0875 µM | 1.6 µM
4 | O=c1[nH][nH]c(=O)c2c(O)c(-c3ccccc3)ncc12 | 32.9 µM and 47.4 µM | 357 µM | 41.6 µM and 130 µM | 399 µM | 57.5 µM and 185 µM | > 1000 µM | 247 µM | 835 µM | 47 µM and 199 µM | > 1000 µM | 42.3 µM and 70.2 µM | 376 µM | 45.8 µM and 175 µM | 357 µM | 62.6 µM and 160 µM | 623 µM | 47.6 µM and 71.6 µM | 841 µM | 31.4 µM and 48.8 µM | 79.8 µM and 405 µM
5 | COC(=O)c1cc2c([nH]c3ccccc32)c(-c2nc3ccccc3cc2CO)n1 | > 100 µM | > 100 µM | > 100 µM | > 100 µM | > 100 µM | > 100 µM | > 100 µM | > 100 µM | > 100 µM | > 100 µM | 73 µM | > 100 µM | 50.3 µM | > 100 µM | > 100 µM | > 100 µM | > 100 µM | > 100 µM | 7.1 µM | > 100 µM
6 | COc1ccc(C2CC(c3ccc4ccccc4c3)=NN2c2nc(O)c(C3=c4cc(Cl)ccc4=NC3=O)s2)cc1 (stereo not given) | 0.0499 µM and < 0.005 µM | – | 0.0221 µM | 0.0503 µM | 0.0342 µM | 0.229 µM | 0.0254 µM | 0.0736 µM | 0.0292 µM and < 0.005 µM | – | 0.0183 µM and < 0.005 µM | 0.0402 µM and < 0.005 µM | 0.0175 µM and < 0.005 µM | 0.0337 µM and < 0.005 µM | 0.0264 µM and < 0.005 µM | – | 0.034 µM and < 0.005 µM | 1.18 µM | 0.0199 µM and < 0.005 µM | 0.0414 µM and < 0.005 µM
7 | CN(CCCCCCCCNc1ccnc2ccccc12)Cc1ccc(-c2ccc(-c3ccc(C#N)cc3)s2)cc1 | 1.44 µM | 3.2 µM | 0.63 µM | 2.17 µM | 0.266 µM | 1.37 µM | 1.4 µM | 3.02 µM | 0.183 µM | 0.533 µM | 1.35 µM | 3.36 µM | 0.89 µM | 2.17 µM | 1.37 µM | 3 µM | 1.31 µM | 2.79 µM | 0.248 µM | 0.842 µM
8 | COc1ccccc1/C=C1\CCC(CN2CCOCC2)C1=O (stereo not given) | – | 29.8 µM | – | 14.2 µM | – | 12.3 µM | – | 29.3 µM | – | 21.8 µM | – | 3.8 µM | – | 28.7 µM | – | 16.2 µM | – | 22.6 µM | – | 34.2 µM
9 | Cc1cc(C(=O)CC(Cl)=C(Cl)Cl)c(Cl)cc1Cl | 20.2 µM | 44.4 µM | 27.7 µM | 86.1 µM | 20 µM | 41.2 µM | 22 µM | 82.9 µM | 29.1 µM | > 100 µM | 22.6 µM | 69.4 µM | 18 µM | 39.9 µM | 19.5 µM | 44.7 µM | 35.4 µM | > 100 µM | 18.6 µM | 38.1 µM
10 | O=C1c2c(c3c4ccccc4n(CCCCCCN4CCOCC4)c3c3[nH]c4ccccc4c23)C(=O)N1O | 17.9 µM | 46.9 µM | 4.74 µM | 21.9 µM | 3.03 µM | 12.2 µM | 3.76 µM | 49.3 µM | 2.07 µM | 7.73 µM | 1.58 µM | 4.15 µM | 4.22 µM | 20 µM | 6.86 µM | 26.4 µM | 10.4 µM | > 100 µM | 1.68 µM | 3.22 µM
11 | CSc1nc(SC)c2c(C)c(Br)[nH]c2n1 | – | > 100 µM | – | > 100 µM | – | > 100 µM | – | > 100 µM | – | > 100 µM | – | > 100 µM | – | > 100 µM | – | > 100 µM | – | > 100 µM | – | > 100 µM
12 | CCc1nc(N)nc(N)c1-c1ccc(N(C)Cc2ccccc2)c([N+](=O)[O-])c1 | – | 18.4 µM | – | 8.4 µM | – | 9.86 µM | – | 25.8 µM | – | 15.9 µM | – | 14.6 µM | – | 4.32 µM | – | 41.7 µM | – | 37.3 µM | – | 24.5 µM
13 | Cc1c(C(=O)/C=C/c2ccc(Cl)cc2)nnn1-c1ccnc2c(C(F)(F)F)cccc12 | > 100 µM | > 100 µM | > 100 µM | > 100 µM | 54.6 µM | > 100 µM | 97.3 µM | > 100 µM | 70.7 µM | > 100 µM | 27.6 µM | > 100 µM | 53.5 µM | > 100 µM | 16.3 µM | > 100 µM | 33.9 µM | > 100 µM | 12.9 µM | 47.8 µM
14 | COC1/C=C/OC2(C)Oc3c(C)c(O)c4c(O)c(c(/C=N/N(c5ccccc5)c5ccccc5)c(O)c4c3C2=O)NC(=O)C(C)=C/C=C/C(C)C(O)C(C)C(O)C(C)C(OC(C)=O)C1C (stereo not given) | 2.5 µM | 8.83 µM | 1.73 µM | 6.23 µM | 1.48 µM | 5.45 µM | 1.85 µM | 11.5 µM | 1.62 µM | 6.58 µM | 0.983 µM | 2.19 µM | 1.76 µM | 6.75 µM | 1.81 µM | 7.46 µM | 2.64 µM | 12.1 µM | 1.2 µM | 3 µM
